Reference: the supplement of paper PMC10627819

Experiments:
Assay in all cases: Bliss interaction score (quartile over a dose matrix) (fitness difference); higher = more antagonism (negative = synergy)
S. pneumoniae D39V = test system: S. pneumoniae D39V
Outline: (§1)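 Fitness was defined as normalised growth: OD595 at the start of stationary phase divided by the plate's robust no-drug mean and capped at 1. Single-drug fitness was inferred from combination measurements. The Bliss score is observed fitness minus the product of the single-drug values, summarised by quartiles across technical, biological and donor/recipient replicates.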

B. subtilis 168 = test system: B. subtilis 168
Outline: as §1

S. aureus Newman = test system: S. aureus Newman
Outline: as §1

S. aureus DSM 20231 = test system: S. aureus DSM 20231
Outline: as §1
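Note: first quartile when negative (synergy) and third quartile when positive (antagonism).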

SMILES	Bliss interaction score (S. pneumoniae D39V)	Bliss interaction score (B. subtilis 168)	Bliss interaction score (S. aureus Newman)	Bliss interaction score (S. aureus DSM 20231)	Bliss interaction score (S. pneumoniae D39V; main component drawn)	Bliss interaction score (B. subtilis 168; main component drawn)	Bliss interaction score (S. aureus Newman; main component drawn)	Bliss interaction score (S. aureus DSM 20231; main component drawn)
CC(=O)Oc1ccccc1C(=O)O [Acetylsalicylicacid] + CO[C@@H]1[C@@H](OC(N)=O)[C@@H](O)[C@H](Oc2ccc3c(O)c(NC(=O)c4ccc(O)c(CC=C(C)C)c4)c(=O)oc3c2C)OC1(C)C [Novobiocin]	0.123	-0.146	-0.0718	-0.068				
CO/N=C(\C(=O)N[C@@H]1C(=O)N2C(C(=O)O)=C(COC(C)=O)CS[C@H]12)c1csc(N)n1 [Cefotaxime] + N[C@@H]1CONC1=O [CycloserineD]	-0.0787	0.0869	0.0643	0.0848				
C[C@H]1c2cccc(O)c2C(=O)C2=C(O)[C@]3(O)C(=O)C(C(N)=O)=C(O)[C@@H](N(C)C)[C@@H]3[C@@H](O)[C@@H]21 [Doxycycline] + CO[C@@]12[C@H](COC(N)=O)C3=C(C(=O)C(C)=C(N)C3=O)N1C[C@@H]1N[C@@H]12 [MitomycinC]	-0.0943	0.0704	0.0515	-0.0478				
CN(C)[C@@H]1C(O)=C(C(N)=O)C(=O)[C@@]2(O)C(O)=C3C(=O)c4c(O)ccc(Cl)c4[C@@](C)(O)[C@H]3C[C@@H]12 [Clortetracycline] + C[C@@H](O)[C@H]1C(=O)N2C(C(=O)O)=C(SCCNC=N)C[C@H]12 [Imipenem]	-0.0487	0.194	0.0268	0.039				
CN(C)[C@@H]1C(O)=C(C(N)=O)C(=O)[C@@]2(O)C(O)=C3C(=O)c4c(O)ccc(Cl)c4[C@@](C)(O)[C@H]3C[C@@H]12 [Clortetracycline] + CN(C)C(=O)C(CCN1CCC(O)(c2ccc(Cl)cc2)CC1)(c1ccccc1)c1ccccc1 [Loperamide]	0.0856	-0.221	-0.0458	0.0792				
CC(=O)Oc1ccccc1C(=O)O [Acetylsalicylicacid] + CC1=C(C(=O)O)N2C(=O)[C@@H](NC(=O)[C@H](N)c3ccccc3)[C@H]2SC1 [Cephalexin]	0.241	0.108	0.0494	0.0849				
N#CC(C#N)=NNc1cccc(Cl)c1 [CCCP] + COc1ccc(C[C@H](N)C(=O)N[C@H]2[C@@H](O)[C@H](n3cnc4c(N(C)C)ncnc43)O[C@@H]2CO)cc1 [Puromycin]	0.0604	0.0243	0.0515	0.0553				
CC1(C)S[C@@H]2[C@H](NC(=O)Cc3ccccc3)C(=O)N2[C@H]1C(=O)O [PenicillinG] + C/C(=C\C(=O)OCCCCCCCCC(=O)O)C[C@@H]1OC[C@H](C[C@@H]2O[C@H]2[C@@H](C)[C@H](C)O)[C@@H](O)[C@H]1O [Pseudomonic acid]	0.0842	0.0659	0.0196	0.0362				
CC(=O)Oc1ccccc1C(=O)O [Acetylsalicylicacid] + CN(C)C(=O)C(CCN1CCC(O)(c2ccc(Cl)cc2)CC1)(c1ccccc1)c1ccccc1 [Loperamide]	0.144	0.0636	-0.0344	0.131				
N#CC(C#N)=NNc1cccc(Cl)c1 [CCCP] + CN(N=O)C(=O)N[C@@H](C=O)[C@@H](O)[C@H](O)[C@H](O)CO [Streptozotocin]	0.0737	0.0172	-0.0707	-0.0689				
O=C(O)c1cn(C2CC2)c2cc(N3CCNCC3)c(F)cc2c1=O [Ciprofloxacin] + CC[C@H]1OC(=O)[C@H](C)[C@@H](O[C@H]2C[C@@](C)(OC)[C@@H](O)[C@H](C)O2)[C@H](C)[C@@H](O[C@@H]2O[C@H](C)C[C@H](N(C)C)[C@H]2O)[C@](C)(O)C[C@@H](C)C(=O)[C@H](C)[C@@H](O)[C@]1(C)O [Erythromycin]	0.065	0.211	0.0474	0.0597				
O=C(O)c1cn(C2CC2)c2cc(N3CCNCC3)c(F)cc2c1=O [Ciprofloxacin] + Oc1cc(Cl)ccc1Oc1ccc(Cl)cc1Cl [Triclosan]	0.0508	-0.0391	-0.0217	0.0355				
CC1(C)S[C@@H]2[C@H](NC(=O)Cc3ccccc3)C(=O)N2[C@H]1C(=O)O [PenicillinG] + Cn1nnc(-c2ccc(-c3ccc(N4C[C@H](CO)OC4=O)cc3F)cn2)n1 [Tedizolid]	0.106	0.0625	-0.0888	0.057				
C[C@@H]1O[C@@H]1P(=O)(O)O [Fosfomycin] + CC[C@H]1OC(=O)[C@H](C)C(=O)[C@H](C)[C@@H](O[C@@H]2O[C@H](C)C[C@H](N(C)C)[C@H]2O)[C@](C)(OC)C[C@@H](C)C(=O)[C@H](C)[C@H]2N(CCCCn3cnc(-c4cccnc4)c3)C(=O)O[C@]12C [Telithromycin]	-0.0329	0.0824	-0.0576	0.0337				
CN(C)[C@@H]1C(O)=C(C(N)=O)C(=O)[C@@]2(O)C(O)=C3C(=O)c4c(O)ccc(Cl)c4[C@@](C)(O)[C@H]3C[C@@H]12 [Clortetracycline] + CO[C@@]12[C@H](COC(N)=O)C3=C(C(=O)C(C)=C(N)C3=O)N1C[C@@H]1N[C@@H]12 [MitomycinC]	-0.0402	0.0447	0.104	-0.0551				
N#CC(C#N)=NNc1cccc(Cl)c1 [CCCP] + COc1cc(Cc2cnc(N)nc2N)cc(OC)c1OC [Trimethoprim]	0.183	0.0605	-0.0599	0.0495				
N#CC(C#N)=NNc1cccc(Cl)c1 [CCCP] + CO/N=C(\C(=O)N[C@@H]1C(=O)N2C(C(=O)O)=C(COC(C)=O)CS[C@H]12)c1csc(N)n1 [Cefotaxime]	-0.112	0.139	0.0493	0.0268				

SMILES	Bliss interaction score (S. pneumoniae D39V)	Bliss interaction score (B. subtilis 168)	Bliss interaction score (S. aureus Newman)	Bliss interaction score (S. aureus DSM 20231)	Bliss interaction score (S. pneumoniae D39V; main component drawn)	Bliss interaction score (B. subtilis 168; main component drawn)	Bliss interaction score (S. aureus Newman; main component drawn)	Bliss interaction score (S. aureus DSM 20231; main component drawn)
CN(C)[C@@H]1C(O)=C(C(N)=O)C(=O)[C@@]2(O)C(O)=C3C(=O)c4c(O)ccc(Cl)c4[C@@](C)(O)[C@H]3C[C@@H]12 [Clortetracycline] + C[C@@H]1O[C@@H]1P(=O)(O)O [Fosfomycin]	0.0517	0.0913	-0.161	-0.158				
CN(C)[C@@H]1C(O)=C(C(N)=O)C(=O)[C@@]2(O)C(O)=C3C(=O)c4c(O)ccc(Cl)c4[C@@](C)(O)[C@H]3C[C@@H]12 [Clortetracycline] + Cc1ncc([N+](=O)[O-])n1CCO [Metronidazole]	0.104	0.141	0.0714	0.0551				
CN(C)[C@@H]1C(O)=C(C(N)=O)C(=O)[C@@]2(O)C(O)=C3C(=O)c4c(O)ccc(Cl)c4[C@@](C)(O)[C@H]3C[C@@H]12 [Clortetracycline] + CCN(CC)CCOC(=O)c1ccc(N)cc1 [Procaine]	-0.0498	0.0759	0.0501	-0.0714				
CN(C)[C@@H]1C(O)=C(C(N)=O)C(=O)[C@@]2(O)C(O)=C3C(=O)c4c(O)ccc(Cl)c4[C@@](C)(O)[C@H]3C[C@@H]12 [Clortetracycline] + CN(C)c1cc(NC(=O)CNC(C)(C)C)c(O)c2c1C[C@H]1C[C@H]3[C@H](N(C)C)C(O)=C(C(N)=O)C(=O)[C@@]3(O)C(O)=C1C2=O [Tigecycline]	-0.0325	0.0768	-0.0522	-0.14				
CC1(C)S[C@@H]2[C@H](NC(=O)Cc3ccccc3)C(=O)N2[C@H]1C(=O)O [PenicillinG] + CCN(CC)CCOC(=O)c1ccc(N)cc1 [Procaine]	0.0857	0.0367	0.0542	-0.0657				
COc1cccc2c1C(=O)c1c(O)c3c(c(O)c1C2=O)C[C@@](O)(C(=O)CO)C[C@@H]3O[C@H]1C[C@H](N)[C@H](O)[C@H](C)O1 [Doxorubicin] + C[C@H]1c2cccc(O)c2C(=O)C2=C(O)[C@]3(O)C(=O)C(C(N)=O)=C(O)[C@@H](N(C)C)[C@@H]3[C@@H](O)[C@@H]21 [Doxycycline]	-0.144	0.0384	-0.0163	0.0574				
CN(C)[C@@H]1C(O)=C(C(N)=O)C(=O)[C@@]2(O)C(O)=C3C(=O)c4c(O)ccc(Cl)c4[C@@](C)(O)[C@H]3C[C@@H]12 [Clortetracycline] + O=C1CN(/N=C/c2ccc([N+](=O)[O-])o2)C(=O)N1 [Nitrofurantoin]	-0.0355	-0.158	-0.0647	0.016				
C[C@@H]1O[C@@H]1P(=O)(O)O [Fosfomycin] + CC(=O)O[C@H]1C[C@@]2(C)[C@@H](C[C@@H](O)[C@H]3[C@@]4(C)CC[C@@H](O)[C@@H](C)[C@@H]4CC[C@@]32C)/C1=C(\CCC=C(C)C)C(=O)O [Fusidic acid]	0.0774	0.0895	-0.0179	0.0457				
CC(=O)Oc1ccccc1C(=O)O [Acetylsalicylicacid] + CCC(C)C1C(=O)NC(=C)C(=O)NC(C(=O)NC(CSCC(C(=O)N1)NC(=O)/C(=C/C)/NC(=O)C(C(C)CC)N)C(=O)NC2C(SCC(NC(=O)CNC(=O)C3CCCN3C2=O)C(=O)NC(CCCCN)C(=O)NC4C(SCC(NC(=O)CNC(=O)C(NC(=O)C(NC(=O)C(NC(=O)CNC4=O)C)CC(C)C)CCSC)C(=O)NC(CC(=O)N)C(=O)NC(CCSC)C(=O)NC(CCCCN)C(=O)NC5C(SCC6C(=O)NC(C(=O)NC(CSC(C(C(=O)N6)NC(=O)C(NC5=O)C)C)C(=O)NC(CO)C(=O)NC(C(C)CC)C(=O)NC(CC7=CN=CN7)C(=O)NC(C(C)C)C(=O)NC(=C)C(=O)NC(CCCCN)C(=O)O)CC8=CN=CN8)C)C)C)CC(C)C [Nisin]					-0.0424	-0.0969	-0.0598	-0.113
N#CC(C#N)=NNc1cccc(Cl)c1 [CCCP] + CC(C1CCC(C(O1)OC2C(CC(C(C2O)OC3C(C(C(CO3)(C)O)NC)O)N)N)N)NC [Gentamicin]					0.0882	0.259	0.116	0.0926
CC(=O)Oc1ccccc1C(=O)O [Acetylsalicylicacid] + COc1cccc2c1C(=O)c1c(O)c3c(c(O)c1C2=O)C[C@@](O)(C(=O)CO)C[C@@H]3O[C@H]1C[C@H](N)[C@H](O)[C@H](C)O1 [Doxorubicin]	0.0551	0.225	0.0561	0.0666				
CO/N=C(\C(=O)N[C@@H]1C(=O)N2C(C(=O)O)=C(COC(N)=O)CS[C@H]12)c1ccco1 [Cefuroxime] + Oc1cc(Cl)ccc1Oc1ccc(Cl)cc1Cl [Triclosan]	0.0619	0.0538	-0.0309	0.0932				
CN(C)[C@@H]1C(O)=C(C(N)=O)C(=O)[C@@]2(O)C(O)=C3C(=O)c4c(O)ccc(Cl)c4[C@@](C)(O)[C@H]3C[C@@H]12 [Clortetracycline] + CCC[C@@H]1C[C@@H](C(=O)N[C@@H]([C@H]2O[C@H](SC)[C@H](O)[C@@H](O)[C@H]2O)[C@@H](C)O)N(C)C1 [Lincomycin]	0.036	0.103	-0.144	-0.171				
CN(C)[C@@H]1C(O)=C(C(N)=O)C(=O)[C@@]2(O)C(O)=C3C(=O)c4c(O)ccc(Cl)c4[C@@](C)(O)[C@H]3C[C@@H]12 [Clortetracycline] + CC1=C\[C@@H](O)CC(=O)Cc2nc(co2)C(=O)N2CCC=C2C(=O)O[C@H](C(C)C)[C@H](C)/C=C/C(=O)NC\C=C\1 [Virginiamycin M1]	-0.0413	0.0837	-0.049	-0.0704				
CC1(C)S[C@@H]2[C@H](NC(=O)Cc3ccccc3)C(=O)N2[C@H]1C(=O)O [PenicillinG] + CN(C)c1cc(NC(=O)CNC(C)(C)C)c(O)c2c1C[C@H]1C[C@H]3[C@H](N(C)C)C(O)=C(C(N)=O)C(=O)[C@@]3(O)C(O)=C1C2=O [Tigecycline]	-0.103	0.0408	0.0515	-0.0277				
CO/N=C(\C(=O)N[C@@H]1C(=O)N2C(C(=O)O)=C(COC(C)=O)CS[C@H]12)c1csc(N)n1 [Cefotaxime] + Oc1cc(Cl)ccc1Oc1ccc(Cl)cc1Cl [Triclosan]	-0.0421	0.0558	0.033	0.0696				
CO/N=C(\C(=O)N[C@@H]1C(=O)N2C(C(=O)O)=C(COC(N)=O)CS[C@H]12)c1ccco1 [Cefuroxime] + CO[C@H]1/C=C/O[C@@]2(C)Oc3c(C)c(O)c4c(O)c(c(/C=N/N5CCN(C)CC5)c(O)c4c3C2=O)NC(=O)/C(C)=C\C=C\[C@H](C)[C@H](O)[C@@H](C)[C@@H](O)[C@@H](C)[C@H](OC(C)=O)[C@@H]1C [Rifampicin]	0.102	0.0741	0.0557	0.109				
